Values of other authors, collected in US20210379090A1, “REMDESIVIR ORAL DELIVERY SYSTEM” (ABON PHARMACEUTICALS, LLC, priority 2020, published 2021).

Experiments:
[1] = would likely result in almost complete first-pass clearance after oral delivery
COVID-19 = conditions: received early within 10 days of symptom onset vs treated late after more than 10 days of symptoms

Remdesivir
hepatic stability [1]: poor hepatic stability | solubility in water: practically insoluble | clinical outcome (COVID-19): improved outcomes
